Values joined by “and” are separate entries in the source; they are usually repeats but may differ in a detail not shown here. Equal entries are not always repeated. “Also recorded” adds a separate entry of the source. Where two headings read alike, the source gives them in different places.
Assays:
[1] = test system: M. avium 101; format: cell-based, M. avium subspecies avium; conditions: for % ΔcGI: vs 3.2% DMSO control; for %-ΔcGI: Example 5
[2] = test system: MAP ATCC 19698 (bovine); format: cell-based, Mycobacterium avium subspecies paratuberculosis; conditions: for % ΔcGI: Bovine MAP 19698, vs 3.2% DMSO control; for %-ΔcGI: Example 5
[3] = test system: MAP Dominic (ATCC 43545), isolated from human with Crohn's disease; format: cell-based, Mycobacterium avium subspecies paratuberculosis; conditions: for %−ΔcGI (percent decrease in cumulative GI): MAP Dominic; for % ΔcGI: vs 3.2% DMSO control; for %-ΔcGI: Example 5
[4] = test system: M. avium ATCC 25291; format: cell-based, M. avium subspecies avium; conditions: for % ΔcGI: M. avium 25291, vs 3.2% DMSO control; for %-ΔcGI: Example 5
[5] = test system: MAP; experiment: Growth inhibition of MAP (strain not stated or MAP strains in general); conditions: for %−ΔcGI (percent decrease in cumulative GI): Example 3, strain not stated; for effect on growth of MAP, in words: MAP strains in general
[6] = test system: MAP UCF 4, isolated from human with Crohn's disease; experiment: Radiometric BACTEC growth inhibition, MAP UCF4; format: cell-based, Mycobacterium avium subspecies paratuberculosis; conditions: for % ΔcGI: Human MAP UCF4, vs 3.2% DMSO control
[7] = test system: MAP 303 (ruminant with Johne's disease); experiment: Radiometric BACTEC growth inhibition, MAP 303; format: cell-based, Mycobacterium avium subspecies paratuberculosis; conditions: Bovine MAP 303, vs 3.2% DMSO control
[8] = 1 μg/ml, Human MAP Dominic Expt. 1
[9] = 1 μg/ml, Human MAP Dominic Expt. 2
[10] = 4 μg/ml, Human MAP Dominic Expt. 1
[11] = 4 μg/ml, Human MAP Dominic Expt. 2
[12] = 16 μg/ml, Human MAP Dominic Expt. 1
[13] = 16 μg/ml, Human MAP Dominic Expt. 2
[14] = 64 μg/ml, Human MAP Dominic Expt. 1
[15] = 64 μg/ml, Human MAP Dominic Expt. 2

In the case of `Sc1ncnc2nc[nH]c12` [6-MP, 6-mercaptopurine], the “effect on growth, in words” value [1] is reported as “less susceptibility to 6-MP than to methotrexate”, the “%−ΔcGI (percent decrease in cumulative GI)” value ([2]; 4 μg/ml, MAP 19698, Example 3) is reported as ~80% and 84% and the “%−ΔcGI (percent decrease in cumulative GI)” value ([3]; 4 μg/ml, Example 3) is reported as 41%. The “effect on growth, in words” value ([4]; M. avium ATCC 25291) was “less susceptibility to 6-MP than to methotrexate”, the “%−ΔcGI (percent decrease in cumulative GI)” value ([5]; 1 μg/ml) was ≥ 43% and the “%−ΔcGI (percent decrease in cumulative GI)” value ([5]; 4 μg/ml) was ≥ 84%. The “effect on growth of MAP, in words” value [5] was “inhibit the growth kinetics of MAP”.
In the case of `C[C@@H]1C[C@@H]([C@H](O)CC2CC(=O)NC(=O)C2)C(=O)[C@@H](C)C1` [Cycloheximide, cycloheximide], the “effect on growth, in words” value [1] is reported as “no affect”, the “% ΔcGI” value ([1]; 1 μg/ml) is reported as 6% and the “% ΔcGI” value ([1]; 4 μg/ml) is reported as 7%. The “% ΔcGI” value ([1]; 16 μg/ml) was 1%, the “% ΔcGI” value ([1]; 64 μg/ml) was 5% and the “% ΔcGI” value ([2]; 1 μg/ml) was −2%. The “% ΔcGI” value ([2]; 4 μg/ml) was −7%, the “% ΔcGI” value ([2]; 16 μg/ml) was −12% and the “% ΔcGI” value ([2]; 64 μg/ml) was −9%. For the same compound, the “% ΔcGI” value [3, 8] was 15%, the “% ΔcGI” value [3, 9] was 9% and the “% ΔcGI” value [3, 10] was −4%. For the same compound, the “% ΔcGI” value [3, 11] was 0%, the “% ΔcGI” value [3, 12] was −8% and the “% ΔcGI” value [3, 13] was −4%. For the same compound, the “% ΔcGI” value [3, 14] was −1%, the “% ΔcGI” value [3, 15] was −7% and the “% ΔcGI” value ([6]; 1 μg/ml) was 1%. For the same compound, the “% ΔcGI” value ([6]; 4 μg/ml) was −7%, the “% ΔcGI” value ([6]; 16 μg/ml) was −4% and the “% ΔcGI” value ([6]; 64 μg/ml) was −12%. The “% ΔcGI” value ([4]; 1 μg/ml) was 0%, the “% ΔcGI” value ([4]; 4 μg/ml) was −8% and the “% ΔcGI” value ([4]; 16 μg/ml) was −7%. The “% ΔcGI” value ([4]; 64 μg/ml) was −57%, the “%−ΔcGI (percent decrease in cumulative GI)” value ([4]; 64 μg/ml, M. avium ATCC 25291) was 57% and the “effect on growth of MAP, in words” value [5] was “no dose-dependent inhibition on any MAP strain”. The “% ΔcGI” value ([7]; 1 μg/ml) was 3%, the “% ΔcGI” value ([7]; 4 μg/ml) was 4% and the “% ΔcGI” value ([7]; 16 μg/ml) was −5%. For the same compound, the “% ΔcGI” value ([7]; 64 μg/ml) was −4%.
With `O=C1CCCC(=O)N1O` [HPD] the “effect on growth, in words” value [1] was “no dose-dependent inhibition”, the “%-ΔcGI” value ([1]; 1 μg/ml) was −12% and the “%-ΔcGI” value ([1]; 4 μg/ml) was −52%. For the same compound, the “%-ΔcGI” value ([1]; 16 μg/ml) was −21%, the “%-ΔcGI” value ([1]; 64 μg/ml) was −36% and the “%-ΔcGI” value ([2]; 1 μg/ml, MAP ATCC 19698) was 22%. For the same compound, the “%-ΔcGI” value ([2]; 4 μg/ml, MAP ATCC 19698) was 7%, the “%-ΔcGI” value ([2]; 16 μg/ml, MAP ATCC 19698) was −3% and the “%−ΔcGI (percent decrease in cumulative GI)” value ([2]; 64 μg/ml, MAP ATCC 19698) was −44%. The “%-ΔcGI” value ([2]; 64 μg/ml, MAP ATCC 19698) was −44%, the “%-ΔcGI” value ([3]; 1 μg/ml, MAP Dominic Expt A) was −5% and the “%-ΔcGI” value ([3]; 1 μg/ml, MAP Dominic Expt B) was 16%. The “%-ΔcGI” value ([3]; 4 μg/ml, MAP Dominic Expt A) was −7%, the “%-ΔcGI” value ([3]; 4 μg/ml, MAP Dominic Expt B) was 6% and the “%-ΔcGI” value ([3]; 16 μg/ml, MAP Dominic Expt A) was −18%. The “%-ΔcGI” value ([3]; 16 μg/ml, MAP Dominic Expt B) was 12%, the “%−ΔcGI (percent decrease in cumulative GI)” value ([3]; 64 μg/ml) was 46% and the “%-ΔcGI” value ([3]; 64 μg/ml, MAP Dominic Expt A) was −46%. The “%-ΔcGI” value ([3]; 64 μg/ml, MAP Dominic Expt B) was −19%, the “%-ΔcGI” value ([4]; 1 μg/ml, M. avium ATCC 25291) was −4% and the “%-ΔcGI” value ([4]; 4 μg/ml, M. avium ATCC 25291) was 47%. The “%-ΔcGI” value ([4]; 16 μg/ml, M. avium ATCC 25291) was 22%, the “%-ΔcGI” value ([4]; 64 μg/ml, M. avium ATCC 25291) was 21% and the “effect on growth, in words” value ([4]; M. avium ATCC 25291) was “no dose-dependent inhibition”. For the same compound, the “effect on growth of MAP, in words” value [5] was “the most potent inhibitory agent evaluated; also recorded: inhibits the growth of MAP”.
In the case of `CC[C@@]1([C@@H]2O[C@@H]([C@H]3O[C@@](O)(CO)[C@H](C)C[C@@H]3C)C[C@@H]2C)CC[C@H]([C@]2(C)CC[C@]3(C[C@H](O)[C@@H](C)[C@@H]([C@@H](C)[C@@H](OC)[C@H](C)C(=O)O)O3)O2)O1` [Monensin, monensin], the “effect on growth, in words” value [1] is reported as “no inhibition”, the “% ΔcGI” value ([1]; 1 μg/ml) is reported as 7% and the “% ΔcGI” value ([1]; 4 μg/ml) is reported as 3%. For the same compound, the “% ΔcGI” value ([1]; 16 μg/ml) was 4%, the “% ΔcGI” value ([1]; 64 μg/ml) was 8% and the “% ΔcGI” value ([2]; 1 μg/ml) was −14%. For the same compound, the “% ΔcGI” value ([2]; 4 μg/ml) was −45%, the “% ΔcGI” value ([2]; 16 μg/ml) was −62% and the “% ΔcGI” value ([2]; 64 μg/ml) was −65%. For the same compound, the “% ΔcGI” value [3, 8] was −52%, the “% ΔcGI” value [3, 9] was −46% and the “% ΔcGI” value [3, 10] was −77%. For the same compound, the “% ΔcGI” value [3, 11] was −71%, the “% ΔcGI” value [3, 12] was −93% and the “% ΔcGI” value [3, 13] was −87%. For the same compound, the “% ΔcGI” value [3, 14] was −94%, the “% ΔcGI” value [3, 15] was −92% and the “% ΔcGI” value ([6]; 1 μg/ml) was −73%. For the same compound, the “% ΔcGI” value ([6]; 4 μg/ml) was −93%, the “% ΔcGI” value ([6]; 16 μg/ml) was −96% and the “% ΔcGI” value ([6]; 64 μg/ml) was −97%. The “% ΔcGI” value ([4]; 1 μg/ml) was −25%, the “% ΔcGI” value ([4]; 4 μg/ml) was −54% and the “% ΔcGI” value ([4]; 16 μg/ml) was −69%. The “% ΔcGI” value ([4]; 64 μg/ml) was −87%, the “effect on growth of MAP, in words” value [5] was “dose-dependent inhibition against all MAP strains” and the “% ΔcGI” value ([7]; 1 μg/ml) was −21%. For the same compound, the “% ΔcGI” value ([7]; 4 μg/ml) was −73%, the “% ΔcGI” value ([7]; 16 μg/ml) was −94% and the “% ΔcGI” value ([7]; 64 μg/ml) was −97%.
In the case of `C=CC[C@@H]1/C=C(\C)C[C@H](C)C[C@H](OC)[C@H]2O[C@@](O)(C(=O)C(=O)N3CCCC[C@H]3C(=O)O[C@H](/C(C)=C/[C@@H]3CC[C@@H](O)[C@H](OC)C3)[C@H](C)[C@@H](O)CC1=O)[C@H](C)C[C@@H]2OC` [Tacrolimus, tacrolimus (FK506)], the “effect on growth, in words” value [1] is reported as “the most inhibition on M. avium 101 of all six strains studied”, the “% ΔcGI” value ([1]; 1 μg/ml) is reported as −34% and the “% ΔcGI” value ([1]; 4 μg/ml) is reported as −43%. The “% ΔcGI” value ([1]; 16 μg/ml) was −40%, the “% ΔcGI” value ([1]; 64 μg/ml) was −52% and the “% ΔcGI” value ([2]; 1 μg/ml) was 8%. The “% ΔcGI” value ([2]; 4 μg/ml) was −3%, the “% ΔcGI” value ([2]; 16 μg/ml) was −5% and the “% ΔcGI” value ([2]; 64 μg/ml) was −26%. For the same compound, the “%−ΔcGI (percent decrease in cumulative GI)” value ([2]; 64 μg/ml, MAP ATCC 19698) was 26%, the “% ΔcGI” value [3, 8] was 28% and the “% ΔcGI” value [3, 9] was 5%. For the same compound, the “% ΔcGI” value [3, 10] was 9%, the “% ΔcGI” value [3, 11] was 9% and the “% ΔcGI” value [3, 12] was 21%. The “% ΔcGI” value [3, 13] was −10%, the “% ΔcGI” value [3, 14] was 0% and the “% ΔcGI” value [3, 15] was −21%. For the same compound, the “% ΔcGI” value ([6]; 1 μg/ml) was 6%, the “% ΔcGI” value ([6]; 4 μg/ml) was −19% and the “% ΔcGI” value ([6]; 16 μg/ml) was −18%. The “% ΔcGI” value ([6]; 64 μg/ml) was −43%, the “%−ΔcGI (percent decrease in cumulative GI)” value ([6]; 64 μg/ml, MAP UCF 4) was 43% and the “% ΔcGI” value ([4]; 1 μg/ml) was −23%. For the same compound, the “% ΔcGI” value ([4]; 4 μg/ml) was −3%, the “% ΔcGI” value ([4]; 16 μg/ml) was 11% and the “% ΔcGI” value ([4]; 64 μg/ml) was 53%. The “effect on growth, in words” value ([4]; M. avium ATCC 25291) was “no inhibition; also recorded: enhanced growth”, the “effect on growth of MAP, in words” value [5] was “the least inhibition of the three “immunosuppressants” studied” and the “% ΔcGI” value ([7]; 1 μg/ml) was 5%. For the same compound, the “% ΔcGI” value ([7]; 4 μg/ml) was 3%, the “% ΔcGI” value ([7]; 16 μg/ml) was −5% and the “% ΔcGI” value ([7]; 64 μg/ml) was −27%.
